In brackets after ≈: the same amount, converted by molar mass. Activity calls are given as the source filed them. The rule behind the calls is not given here.
Tests used:
[1] = Metabolic stability in rat liver microsomes assessed as parent compound remaining at 1 uM up to 30 mins in presence of NADPH by LC-MS/MS analysis; format: ADME, microsome; settings: read-out: Stability
[2] = Ratio of drug level in zebrafish brain to blood at 10 mg/kg, po administered via gavage measured 0.5 hrs post compound administration by LC-MS/MS analysis; format: ADME, organism-based, Danio rerio
[3] = Equilibrium solubility of the compound in DMSO after 16 hrs; format: physicochemical
[4] = Metabolic stability in human liver microsomes assessed as parent compound remaining at 1 uM up to 30 mins in presence of NADPH by LC-MS/MS analysis; format: ADME, microsome; settings: read-out: Stability
[5] = biological target: T1, P2X purinoceptor 2 (Homo sapiens) (UniProt Q9UBL9); experiment: Antagonist activity at human P2X2 receptor expressed in 1321N1 cells assessed as inhibition of ATP-induced calcium flux at 1 uM measured for 30 secs at 0.4 secs intervals by Flou-4-AM dye based fluorescence assay relative to control; format: cell-based
T1 sequence (whole entry): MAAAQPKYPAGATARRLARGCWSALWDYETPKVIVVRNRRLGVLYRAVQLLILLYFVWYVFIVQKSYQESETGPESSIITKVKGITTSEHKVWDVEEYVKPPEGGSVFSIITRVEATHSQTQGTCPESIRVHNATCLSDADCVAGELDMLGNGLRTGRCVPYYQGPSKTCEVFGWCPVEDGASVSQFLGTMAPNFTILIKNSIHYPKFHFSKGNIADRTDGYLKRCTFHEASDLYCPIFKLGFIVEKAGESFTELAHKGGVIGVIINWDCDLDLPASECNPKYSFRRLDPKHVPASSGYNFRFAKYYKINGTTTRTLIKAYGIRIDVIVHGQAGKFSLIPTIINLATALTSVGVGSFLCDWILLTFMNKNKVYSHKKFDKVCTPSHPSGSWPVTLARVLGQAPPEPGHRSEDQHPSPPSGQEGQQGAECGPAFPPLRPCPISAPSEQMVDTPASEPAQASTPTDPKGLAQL

[6] = Drug level in zebrafish brain at 10 mg/kg, po administered via gavage measured 0.5 hrs post compound administration by LC-MS/MS analysis; format: ADME, organism-based, Danio rerio; settings: read-out: Drug uptake
[7] = Reduction of […] mRNA expression in human TS15-88 cells after 72 hrs by qRT-PCR analysis relative to control; format: functional; parameters: scale not given: the % may be the effect or the level left
[8] = Drug level in zebrafish blood at 10 mg/kg, po administered via gavage measured 0.5 hrs post compound administration by LC-MS/MS analysis; format: ADME, organism-based, Danio rerio; settings: read-out: Drug uptake
P2X purinoceptor 7 [9] = biological target: T2, P2X purinoceptor 7 (Homo sapiens, UniProt Q99572); experiment: Antagonist activity at P2X7 in LPS/IFN gamma differentiated human THP-1 cells assessed as inhibition of BzATP-induced IL-1beta release preincubated for 30 mins followed by BzATP stimulation for 30 mins by ELISA; format: cell-based
T2 sequence (Q99572 whole entry): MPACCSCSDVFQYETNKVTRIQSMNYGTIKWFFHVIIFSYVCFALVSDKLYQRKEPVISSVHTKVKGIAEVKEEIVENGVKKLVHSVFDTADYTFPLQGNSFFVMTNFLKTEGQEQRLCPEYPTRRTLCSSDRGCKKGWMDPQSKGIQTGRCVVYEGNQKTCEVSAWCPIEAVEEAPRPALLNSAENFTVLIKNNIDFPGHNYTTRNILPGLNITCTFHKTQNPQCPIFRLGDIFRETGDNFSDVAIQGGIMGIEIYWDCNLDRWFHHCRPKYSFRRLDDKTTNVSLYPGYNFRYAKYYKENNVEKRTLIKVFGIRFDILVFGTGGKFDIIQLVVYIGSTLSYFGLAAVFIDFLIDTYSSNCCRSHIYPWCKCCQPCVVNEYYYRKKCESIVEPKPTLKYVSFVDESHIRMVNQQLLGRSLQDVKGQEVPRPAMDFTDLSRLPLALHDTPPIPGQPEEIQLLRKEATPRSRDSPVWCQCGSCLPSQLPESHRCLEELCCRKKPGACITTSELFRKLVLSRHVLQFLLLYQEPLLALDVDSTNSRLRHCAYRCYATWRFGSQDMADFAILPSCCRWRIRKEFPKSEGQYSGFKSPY

[10] = Increase in MYC mRNA expression in human TS15-88 cells after 72 hrs by qRT-PCR analysis relative to control; format: functional
P2X purinoceptor 3 = biological target: T3, P2X purinoceptor 3 (Homo sapiens, UniProt P56373); experiment: Antagonist activity at human P2X3 receptor expressed in 1321N1 cells assessed as inhibition of ATP-induced calcium flux measured for 30 secs at 0.4 secs intervals by Flou-4-AM dye based fluorescence assay; format: cell-based
T3 sequence (P56373 whole entry): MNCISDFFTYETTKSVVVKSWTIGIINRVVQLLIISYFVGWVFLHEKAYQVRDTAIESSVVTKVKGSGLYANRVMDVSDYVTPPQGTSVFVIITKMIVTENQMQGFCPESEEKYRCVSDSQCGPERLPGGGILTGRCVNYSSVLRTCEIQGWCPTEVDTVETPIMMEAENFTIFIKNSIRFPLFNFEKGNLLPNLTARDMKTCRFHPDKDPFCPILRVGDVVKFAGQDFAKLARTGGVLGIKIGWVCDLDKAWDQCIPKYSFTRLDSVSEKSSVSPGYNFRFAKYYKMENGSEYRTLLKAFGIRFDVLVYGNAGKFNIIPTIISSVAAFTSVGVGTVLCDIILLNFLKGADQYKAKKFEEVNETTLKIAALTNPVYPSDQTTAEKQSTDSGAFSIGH

Homo sapiens [11] = species: Homo sapiens; experiment: Effect on SOX2 mRNA expression in human TS15-88 cells after 72 hrs by qRT-PCR analysis; format: functional, cell-based
[12] = biological target: T4, P2X purinoceptor 7 (Homo sapiens) (UniProt Q99572); experiment: Antagonist activity at human P2X7 receptor expressed in HEK293 cells assessed as inhibition of BzATP-induced EtBr uptake at 10 uM after 2 hrs by fluorescence assay relative to control; format: cell-based
T4 sequence (whole entry): T2 sequence (Q99572 whole entry)

P2X purinoceptor 7 [13] = biological target: T2, P2X purinoceptor 7; experiment: Antagonist activity at human P2X7 receptor expressed in HEK293 cells assessed as inhibition of BzATP-induced EtBr uptake after 2 hrs by fluorescence assay relative to control; format: cell-based
Homo sapiens [14] = species: Homo sapiens; experiment: Inhibition of neurosphere formation in human TS15-88 cells assessed as decrease in surface area of sphere at 50 uM after 5 days by microscopic analysis; format: functional, cell-based
[15] = Metabolic stability in mouse liver microsomes assessed as parent compound remaining at 1 uM up to 30 mins in presence of NADPH by LC-MS/MS analysis; format: ADME, microsome; settings: read-out: Stability

O=C(CC12CC3CC(CC(C3)C1)C2)Nc1cccc2nc(Cl)ccc12
remaining at 0.5 h, 1 µM [1]: 0.06% | Kp at 0.5 h [2]: 2.03 | solubility at 16 h [3]: 15.6 µM (≈ 5.54 µg/mL) | remaining at 0.5 h, 1 µM [4]: 0.04% | inhibition [5]: 7% | concentration at 0.5 h [6]: 425 ng/g | Activity [7]: 41% | concentration at 0.5 h [8]: 235 ng/mL | IC50 (P2X purinoceptor 7 [9]): 7 nM | Activity [10]: 41% | IC50 (P2X purinoceptor 3): Not Active | Activity (Homo sapiens [11]): inactive | inhibition [12]: 97% | IC50 (P2X purinoceptor 7 [13]): 4 nM | inhibition (Homo sapiens [14]): Active | remaining at 0.5 h, 1 µM [15]: 0.1%

From ChEMBL document CHEMBL4152208, “Synthesis and structure-activity relationships of quinolinone and quinoline-based P2X7 receptor antagonists and their anti-sphere formation activities in glioblastoma cells” (Eur J Med Chem, 2018)
